Measured values: patent US7795495B2, “Transgenic mice for screening for inhibitors of protein aggregation and methods for making and using them” (The Regents of the University of California, priority 2000, dated 2010)

Columns and labels:
[1] = target: SDS-resistant complexes of α-synuclein and Aβ1-40 (Homo sapiens, UniProt P37840); test: Formation of SDS-resistant complexes of α-synuclein and Aβ1-40, immunoblotting analysis; assay type: biochemical; settings: 10 µM α-synuclein, 10 µM Aβ1-40, 100 µM peptide
Excerpt: Those in the art generally agree that β-Synuclein blocks Aβ proto-fibril formation by one of two possible mechanistic pathways. In the first pathway, inhibition is facilitated through indirectly blocking NAC or α-synuclein interaction with Aβ. In the second possible pathway, inhibition is facilitated by the direct blocking Aβ aggregation.

[2] = Aggregation of synuclein proteins under high temperature conditions (SDS-PAGE/Coomassie brilliant blue); assay type: physicochemical; settings: 20 µM protein, pH 6.9, 65 °C, 0, 8 and 20 hours
Method: Each of the protein samples (20 µM) was incubated under pH 6.9, 65° C. conditions for 0, 8, and 20 hours. The incubated samples were run over SDS-PAGE and the resulting protein bands visualized by Coomassie/brilliant blue staining (FIG. 2).

B103 cells = B103 cells overexpressing synuclein: cell adhesion and neurite extension; assay type: cell-based; settings: catalase 100 µg/ml, superoxide dismutase 100 U/ml, vitamin E 500 µM
[3] = system: GT1-7 murine hypothalamic neuronal cells; test: GT1-7 cells overexpressing α-synuclein: mitochondrial alterations and oxidative stress; assay type: cell-based
Method: To determine if the overexpression of α-synuclein causes dysregulated neuronal function, GT1-7 cells were transfected with the mammalian expression vector pCR3.1 (Invitrogen) using standard transfection protocols well known in the art. The cells were transfected with or without insertion of murine α-synuclein cDNA. The resulting expression of α-synuclein was measured at both mRNA and protein levels using RPA and immunoblotting analysis. Clones which either overexpressed or underexpressed α-synuclein (via transfection with an anti-sense plasmid) were selected and analyzed. […] These alterations were ameliorated by pretreatment with the anti-oxidant, vitamin E. Furthermore, α-synuclein overexpression in GT1-7 cells results in the formation of α-synuclein—immunopositive inclusion-like structures.

α-synuclein tg mice = test: Bigenic crosses: β-synuclein overexpression in α-synuclein tg mice (rotorod, neuropathological analysis); assay type: in vivo
Excerpt: Motor deficits in Lewy body disease are associated with degeneration of the nigral dopaminergic neurons projecting to the striatum. To determine if loss of dopaminergic input to the striatum in transgenic mice is associated with Parkinson's disease related neurological impairments, mice were examined with a rotorod test, a behavioral testing mechanism well known to those familiar with such procedures. […] The dopaminergic and behavioral deficits were detected only in the high expression line and not in low-expression lines. […] This may lead to the conclusion that a critical threshold of α-synuclein accumulation is required for dopaminergic and behavioral deficits to become detectable. None-the-less, the evaluation of such neurophysiological characteristics, as previously described, are well known to those of skill in such evaluations. As such, it is apparent that the increased expression of wild-type α-synuclein plays a key role in the pathogenesis of neurodegenerative conditions associated with amyloidogenesis.

B103 neuroblastoma cells = test: Aβ cytotoxicity in B103 neuroblastoma cells; assay type: cell-based; settings: for effect on Aβ cytotoxicity / cell survival: Aβ 20 µM, serum-free, three days, protein 20 µM
Method: When B103 neuroblastoma cells were incubated with Aβ (20 µM) under serum-free conditions for three days, dead cells become prominent due to the cytotoxic effects of Aβ.

51-60 (Seq ID #11): synthetic peptide, amino acids 51-61 of β-synuclein: Gly Val Ala Ser Val Ala Glu Lys Thr Lys Glu (GVASVAEKTKE; listed as Homo sapiens)
suppression of the formation of SDS-resistant complexes of α-synuclein and Aβ1-40 [1]: significant suppression
suppression of the formation of SDS-resistant complexes of α-synuclein and Aβ1-40 ([1]; listed as a.a. 51-61 of β-synuclein): suppression

β-synuclein .delta.2: β-synuclein mutant with amino acids 63-72 of NAC N-terminal inserted by site-directed mutagenesis
formation of aggregates / amyloid-like fibrils under high temperature conditions [2]: aggregated to form amyloid-like fibrils

vitamin E
effect of anti-oxidants on altered adhesion and neurite outgrowth of synuclein overexpressing cells (B103 cells): little effect
effect of pretreatment on alterations caused by α-synuclein overexpression (mitochondrial alterations, free radicals, glutathione, gonadotropin-releasing hormone secretion) [3]: ameliorated

β-synuclein .delta.1: β-synuclein mutant with amino acids 72-83 of NAC inserted by site-directed mutagenesis
formation of aggregates / amyloid-like fibrils under high temperature conditions [2]: aggregated to form amyloid-like fibrils

superoxide dismutase
effect of anti-oxidants on altered adhesion and neurite outgrowth of synuclein overexpressing cells (B103 cells): little effect

β-synuclein
formation of aggregates / amyloid-like fibrils under high temperature conditions [2]: fails to show any formation of aggregates
motor deficits, rotorod performance (α-synuclein tg mice; β-synuclein overexpression in α-synuclein tg mice (bigenic crosses), FIG. 14): reduced the motor deficits
neuronal loss (α-synuclein tg mice; β-synuclein overexpression in α-synuclein tg mice, FIG. 16): reduction neuronal loss
neuronal inclusions (α-synuclein tg mice; β-synuclein overexpression in α-synuclein tg mice, neuropathological analysis, FIG. 15): reduction of neuronal inclusions
effect on Aβ cytotoxicity / cell survival (B103 neuroblastoma cells): blocked the effects of this cytotoxicity
effect on Aβ toxicity in neuroblastoma cell (summary statement) (B103 neuroblastoma cells): protective

α-synuclein [reference compound]
formation of aggregates / amyloid-like fibrils under high temperature conditions [2]: positive aggregation
effect on Aβ cytotoxicity / cell survival (B103 neuroblastoma cells): detrimental to cell survival
effect on Aβ toxicity in neuroblastoma cell (summary statement) (B103 neuroblastoma cells): enhances Aβ toxicity

catalase
effect of anti-oxidants on altered adhesion and neurite outgrowth of synuclein overexpressing cells (B103 cells): little effect
